Assay results from US10994015B2, “EGFR proteolysis targeting chimeric molecules and associated methods of use” (Arvinas Operations, Inc., priority 2016, dated 2021).
One block for each compound: values may come before it.

How the values were obtained:
GTL16 cells = experiment: Cell-proliferation assay in GTL16 cells; assay type: cell-based; conditions: Homo sapiens, GTL 16
Protocol: Cell Proliferation Assays
Following PROTAC or diastereomer treatment of cells as indicated, culture medium was supplemented with 330 μg/ml MTS (Promega Corp., Madison, Wis.) and 25 μM phenazine methosulfate (Sigma, St. Louis, Mo.) and incubated at 37° C. Mitochondrial reduction of MTS to the formazan derivative was monitored by measuring the medium's absorbance at 490 nm using a Wallac Victor^2 platereader (Perkin-Elmer Life Sciences, Waltham, Mass.). Data analysis and statistics performed using Prism v7.0 software (GraphPad Software).

AKT phosphorylation = experiment: HGF-driven AKT phosphorylation in MDA-MB-231 cells (immunoblot); assay type: cell-based; conditions: HGF pulse
Protocol: (§1) Cells were treated with the indicated concentrations of PROTAC or corresponding inhibiting diastereomer for the specified time and then harvested in lysis buffer (25 mM Tris.HCl pH 7.5 with 1% NP-40 and 0.25% deoxycholate, supplemented with 10 mM sodium pyrophosphate, 20 mM ß-glycerophosphate, 10 mM sodium fluoride, 1 mM sodium orthovanadate, 0.1 mM phenylarsine oxide, 10 μg/ml leupeptin, 10 μg/ml pepstatin A, 30 μg/ml bestatin, 0.3 trypsin inhibitor units/ml aprotinin and 1 mM PMSF). Following centrifugation at 16,000×g for 10 min at 4° C. to pellet insoluble materials, the protein concentrations of the supernatants were quantitated by BCA assay (Thermo Fisher Scientific). Protein samples were resolved by 8% SDS-PAGE, electrophoretically transferred to nitrocellulose and probed with the antibodies listed above. Immunoblots were developed using enhanced chemiluminescence and visualized using a Bio-Rad Chemi-Doc MP Imaging System and quantitated with Image Lab v.5.2.1 software (Bio-Rad Laboratories).

WT EGFR = WT EGFR (Homo sapiens (Human), UniProt P00533); experiment: Immunoblot of EGFR degradation in OVCAR8 cells; assay type: cell-based; conditions: 24 hours
Chain of WT EGFR (P00533 25-1210): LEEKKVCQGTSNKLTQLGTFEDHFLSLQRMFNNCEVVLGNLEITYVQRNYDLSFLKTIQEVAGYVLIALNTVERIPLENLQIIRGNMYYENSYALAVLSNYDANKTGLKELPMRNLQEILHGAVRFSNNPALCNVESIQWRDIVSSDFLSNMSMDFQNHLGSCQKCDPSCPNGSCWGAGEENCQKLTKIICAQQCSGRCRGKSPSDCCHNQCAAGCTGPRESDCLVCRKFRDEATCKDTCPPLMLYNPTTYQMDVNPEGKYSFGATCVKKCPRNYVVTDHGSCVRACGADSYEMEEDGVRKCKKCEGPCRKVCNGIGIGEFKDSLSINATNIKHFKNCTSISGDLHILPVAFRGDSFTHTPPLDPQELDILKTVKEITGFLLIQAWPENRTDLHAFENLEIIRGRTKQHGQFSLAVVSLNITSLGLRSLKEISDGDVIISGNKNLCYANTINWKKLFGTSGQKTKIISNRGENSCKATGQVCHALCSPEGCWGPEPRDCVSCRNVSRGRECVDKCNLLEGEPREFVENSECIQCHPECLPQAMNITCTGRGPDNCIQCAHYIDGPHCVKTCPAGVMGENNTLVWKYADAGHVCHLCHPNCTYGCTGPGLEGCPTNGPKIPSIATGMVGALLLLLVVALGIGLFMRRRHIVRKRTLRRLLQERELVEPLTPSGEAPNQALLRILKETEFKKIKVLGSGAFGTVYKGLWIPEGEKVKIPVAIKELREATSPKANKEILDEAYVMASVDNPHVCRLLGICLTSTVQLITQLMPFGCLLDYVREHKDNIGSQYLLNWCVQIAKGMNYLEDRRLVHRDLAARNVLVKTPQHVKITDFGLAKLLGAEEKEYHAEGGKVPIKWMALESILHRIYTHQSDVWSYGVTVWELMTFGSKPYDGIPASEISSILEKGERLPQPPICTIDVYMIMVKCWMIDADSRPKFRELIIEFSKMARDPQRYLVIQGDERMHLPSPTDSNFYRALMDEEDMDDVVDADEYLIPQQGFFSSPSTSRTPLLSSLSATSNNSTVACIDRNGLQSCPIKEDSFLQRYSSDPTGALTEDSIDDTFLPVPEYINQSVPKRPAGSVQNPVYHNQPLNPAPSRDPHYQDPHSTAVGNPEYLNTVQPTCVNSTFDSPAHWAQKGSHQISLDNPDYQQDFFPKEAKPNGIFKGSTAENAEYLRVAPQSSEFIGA
Protocol: as §1

exon-19 deletion EGFR = exon-19 deletion EGFR (Homo sapiens (Human), UniProt P00533, DEL746-750); experiment: Immunoblot of EGFR degradation in HCC827 cells; assay type: cell-based; conditions: 24 hours
Chain of exon-19 deletion EGFR (P00533 other isoform, or with tags, fused parts or gaps del 746-750): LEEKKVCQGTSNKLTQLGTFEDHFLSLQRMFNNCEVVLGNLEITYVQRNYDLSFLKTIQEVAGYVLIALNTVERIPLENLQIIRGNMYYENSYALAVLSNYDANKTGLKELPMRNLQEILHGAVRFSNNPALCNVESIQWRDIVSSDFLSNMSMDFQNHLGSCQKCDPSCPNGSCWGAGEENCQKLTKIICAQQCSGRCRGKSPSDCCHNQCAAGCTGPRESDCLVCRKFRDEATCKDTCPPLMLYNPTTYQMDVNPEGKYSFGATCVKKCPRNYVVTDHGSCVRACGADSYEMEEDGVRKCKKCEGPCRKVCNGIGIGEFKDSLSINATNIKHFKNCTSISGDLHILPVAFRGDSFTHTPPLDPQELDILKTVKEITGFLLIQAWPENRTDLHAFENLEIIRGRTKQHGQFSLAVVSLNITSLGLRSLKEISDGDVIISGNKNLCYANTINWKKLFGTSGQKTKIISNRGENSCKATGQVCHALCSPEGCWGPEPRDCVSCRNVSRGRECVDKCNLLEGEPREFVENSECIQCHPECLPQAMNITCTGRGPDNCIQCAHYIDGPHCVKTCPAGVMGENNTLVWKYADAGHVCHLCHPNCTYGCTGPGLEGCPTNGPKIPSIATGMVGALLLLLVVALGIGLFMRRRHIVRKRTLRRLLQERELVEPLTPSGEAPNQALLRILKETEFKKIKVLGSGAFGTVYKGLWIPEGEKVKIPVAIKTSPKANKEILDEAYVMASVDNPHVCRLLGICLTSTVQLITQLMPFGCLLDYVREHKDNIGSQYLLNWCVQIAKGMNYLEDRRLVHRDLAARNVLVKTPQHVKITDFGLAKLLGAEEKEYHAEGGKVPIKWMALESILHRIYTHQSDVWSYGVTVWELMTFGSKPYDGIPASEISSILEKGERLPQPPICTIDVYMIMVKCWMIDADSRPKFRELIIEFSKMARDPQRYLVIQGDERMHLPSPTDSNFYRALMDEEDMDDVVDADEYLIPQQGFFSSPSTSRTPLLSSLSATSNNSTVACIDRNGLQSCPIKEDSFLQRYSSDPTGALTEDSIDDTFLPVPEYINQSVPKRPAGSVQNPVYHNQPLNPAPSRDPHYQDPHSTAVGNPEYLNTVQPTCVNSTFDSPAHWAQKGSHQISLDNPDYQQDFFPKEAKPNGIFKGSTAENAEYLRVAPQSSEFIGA
Protocol: as §1

L858R EGFR = L858R EGFR (Homo sapiens (Human), UniProt P00533, L858R); experiment: Immunoblot of EGFR degradation in H3255 cells; assay type: cell-based; conditions: 24 hours
Protocol: as §1

EGFR Exon20NPG = EGFR Exon20NPG (Homo sapiens (Human), UniProt P00533, INS770NPG); experiment: TR-FRET assay for ERBB kinases; assay type: biochemical; conditions: geometric mean if measured more than once
Procedure, shortened: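 Compounds pre-incubated 10 min with kinase in HEPES pH 7.5 buffer (MgCl2, DTT, Pluronic), then reaction started with substrate mix (3 mM ATP, 30 µM fluorescein-poly-GluTyr, stock levels) for 10 min at room temperature. EDTA-quenched, detected by Tb-pY20 antibody TR-FRET (520/490 nm emission).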

EGFR-Δ19 (HCC827) = EGFR-Δ19 (HCC827) (Homo sapiens (Human), UniProt P00533, DEL746-750); experiment: EGFR protein degradation assay (Western blot); assay type: cell-based; conditions: 72 hours, 300 nM to 10 nM
EGFR Exon 20 ASV (HeLa*) = EGFR Exon 20 ASV (HeLa*) (Homo sapiens (Human), UniProt P00533, DUP767-769); experiment: EGFR protein degradation assay (Western blot); assay type: cell-based; conditions: 72 hours, 300 nM to 10 nM
[1] = target: EGFR-wt (MDA-MB-231 or MCF7 or A549 or OVCAR8) (Homo sapiens (Human), UniProt P00533); experiment: EGFR protein degradation assay (Western blot); assay type: cell-based; conditions: 72 hours, 300 nM to 10 nM
Chain of EGFR-wt (MDA-MB-231 or MCF7 or A549 or OVCAR8) (P00533 25-1210): as the sequence (P00533 25-1210) above
Procedure, shortened: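 Cells carrying the relevant EGFR form were plated at 300,000 per well in 6-well plates and left overnight to attach. For harvest, cells were rinsed once in ice-cold PBS and lysed in 400 μl lysis buffer containing protease inhibitors. Lysates were cleared at 10 000 rpm for 10 minutes and their protein content measured by BCA. Then 10 μg per sample was separated by SDS/PAGE at 165V for 2 hours, and EGFR was detected by ECL on a Chemidoc.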

[2] = target: EGFR L858R/T790M double mutant (H1975) (Homo sapiens (Human), UniProt P00533, L858R/T790M); experiment: EGFR protein degradation assay (Western blot); assay type: cell-based; conditions: 72 hours, 300 nM to 10 nM
Procedure, shortened: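 Cells carrying the relevant EGFR form were plated at 300,000 cells per well in 6-well plates and left to attach overnight. After washing in ice-cold PBS, cells were lysed in 400 μl lysis buffer with protease inhibitors, scraped, and clarified at 10 000 rpm for 10 minutes. EGFR levels were then assessed by Western blot with tubulin as loading control.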

HER3 = HER3 (Homo sapiens (Human), UniProt P21860); experiment: TR-FRET assay for ERBB kinases; assay type: biochemical; conditions: geometric mean if measured more than once
EGFR L858R/T790M = EGFR L858R/T790M (Homo sapiens (Human), UniProt P00533, L858R/T790M); experiment: TR-FRET assay for ERBB kinases; assay type: biochemical; conditions: geometric mean if measured more than once
Procedure, shortened: (§2)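 Compounds, serially diluted 3-fold in DMSO, were pre-incubated 10 min with kinase in HEPES pH 7.5 buffer with MgCl2 and DTT. Reactions were started with a substrate mix holding 3 mM ATP and 30 uM fluorescein-poly-GluTyr, run 10 min at room temperature, then quenched with Tb-pY20 antibody plus EDTA.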

EGFR L858R/T790M/C797S = EGFR L858R/T790M/C797S (Homo sapiens (Human), UniProt P00533, C797S/L858R/T790M); experiment: TR-FRET assay for ERBB kinases; assay type: biochemical; conditions: geometric mean if measured more than once
Procedure, shortened: as §2

EGFR WT = EGFR WT (Homo sapiens (Human), UniProt P00533); experiment: TR-FRET assay for ERBB kinases; assay type: biochemical; conditions: geometric mean if measured more than once
Chain of EGFR WT (P00533 25-1210): as above
Procedure, shortened: as §2

SMILES: COc1cc2c(Oc3ccc(N(C(=O)C4(C(N)=O)CC4)c4ccc(F)cc4)cc3F)ccnc2cc1OCCCOCCCOCCC(=O)N[C@H](C(=O)N1C[C@@H](O)C[C@H]1C(=O)NCc1ccc(-c2scnc2C)cc1)C(C)(C)C (single isomer, unassigned) [diastereomer 8]
IC50 (GTL16 cells): 156 nM | fold higher concentration than PROTAC 7 required to completely inhibit agonist-driven AKT phosphorylation (AKT phosphorylation): approximately 10 fold

EGFR degradation (immunoblot) (WT EGFR): sparing the WT EGFR | degradation of exon-19 deletion EGFR (immunoblot) (exon-19 deletion EGFR): enabled the degradation | degradation of L858R EGFR (immunoblot) (L858R EGFR): enabled the degradation
SMILES: COc1cc2ncnc(Nc3ccc(F)c(Cl)c3)c2cc1OCCCCCOCCOCCC(=O)N[C@H](C(=O)N1C[C@H](O)C[C@H]1C(=O)NCc1ccc(-c2scnc2C)cc1)C(C)(C)C [PROTAC 3]

SMILES: COc1cc2ncnc(Nc3ccc(F)c(Cl)c3)c2cc1NC(=O)/C=C/CN(C)CCCOCCCOCC(=O)N[C@H](C(=O)N1CC(O)C[C@@H]1C(=O)NCc1ccc(-c2scnc2C)cc1)C(C)(C)C (some centres unmarked) [compound 48]
IC50 (EGFR Exon20NPG): 120 nM | EGFR protein remaining, EGFR-Δ19 (EGFR-Δ19 (HCC827)): A (≤50% EGFR protein remaining after 72 hours of incubation with the test compound at a concentration between 300 nM and 10 nM) | EGFR protein remaining, EGFR Exon 20 ASV (EGFR Exon 20 ASV (HeLa*)): C (>80% EGFR protein remaining after 72 hours of incubation with the test compound at a concentration of 300 nM) | EGFR protein remaining, EGFR-wt [1]: B (≤80% and >50% EGFR protein remaining after 72 hours of incubation with the test compound at a concentration between 300 nM and 10 nM) | EGFR protein remaining, EGFR L858R/T790M double mutant [2]: B (≤80% and >50% EGFR protein remaining after 72 hours of incubation with the test compound at a concentration between 300 nM and 10 nM) | IC50 (HER3): 20000 nM | IC50 (EGFR L858R/T790M): 3000 nM | IC50 (EGFR L858R/T790M/C797S): 7000 nM | IC50 (EGFR WT): 4.7 nM
